According to patent US6468979B1, “Erythromycin derivatives with antibiotic activity” (Zambon Group S.p.A., priority 1998, dated 2002):
Converted amounts (≈) assume the structure as drawn.

Legend:
[1] = test system: S. aureus 77; assay: In vitro antibacterial activity (MIC), broth dilution micromethod; assay type: cell-based, Staphylococcus aureus; details: erythromycin-resistant strain, MHB, 37° C., 18 hours
Protocol: (§1) The minimum inhibitory concentrations (MIC), with respect to Gram-positive bacteria (erythromycin-sensitive and -resistant strains) and Gram-negative bacteria, were determined by means of the broth-scaler dilution micromethod in twin series [National Committee for Clinical Laboratory Standards, 1990; Methods for dilution antimicrobial susceptibility tests for bacteria that grow aerobically; Approved standards M7-A2-NCCLS, Villanova, Pa.], using Mueller Hinton Broth (MHB) as culture medium.
(§2) Azithromycin [The Merck Index, XIIth Edition, No. 946) was used as reference macrolide.
(§3) The MIC values, expressed in μg/ml, were determined after incubating the microplates at 37° C. for 18 hours, by evaluating the lowest concentration of antibiotic capable of inhibiting bacterial growth.

[2] = test system: S. aureus 929; assay: as above; assay type: cell-based, Staphylococcus aureus; details: erythromycin-resistant strain, MHB, 37° C., 18 hours
Protocol: as §1, §2, §3

[3] = test system: S. coag. Neg. 845; assay: as above; assay type: cell-based, Staphylococcus spp.; details: erythromycin-resistant strain, MHB, 37° C., 18 hours
Protocol: as §1, §2, §3

[4] = test system: S. epidermis 60; assay: as above; assay type: cell-based, Staphylococcus spp.; details: erythromycin-resistant (inducible) strain, MHB, 37° C., 18 hours
Protocol: as §1, §2, §3

[5] = test system: S. specie 916; assay: as above; assay type: cell-based, Staphylococcus spp.; details: erythromycin-resistant (inducible) strain, MHB, 37° C., 18 hours
Protocol: as §1, §2, §3

[6] = test system: S. haemolyticus 161; assay: as above; assay type: cell-based, Staphylococcus haemolyticus; details: erythromycin-resistant strain, MHB, 37° C., 18 hours
Protocol: as §1, §2, §3

[7] = test system: S. pneumoniae 1035; assay: as above; assay type: cell-based, Streptococcus pneumoniae; details: erythromycin-resistant strain, MHB with 5% horse serum, 37° C., 18 hours
Protocol: as §1
(§4) In the case of Streptococcus pneumoniae, the medium was supplemented with 5% horse serum.
as §2, §3

[8] = test system: S. pneumoniae 1047; assay: as above; assay type: cell-based, Streptococcus pneumoniae; details: erythromycin-resistant strain, MHB with 5% horse serum, 37° C., 18 hours
Protocol: as §1, §4, §2, §3

[9] = test system: S. pneumoniae 1051; assay: as above; assay type: cell-based, Streptococcus pneumoniae; details: erythromycin-resistant strain, MHB with 5% horse serum, 37° C., 18 hours
Protocol: as §1, §4, §2, §3

[10] = test system: Streptococcus pyogenes C203; assay: In vivo therapeutic efficacy in experimental pulmonary infection in mice; details: CD1 mice, death observed for 7 days, probit analysis; for PD50 1 hour after infection: single oral dose 1 hour after intranasal infection; for PD50 24 hours before infection: single oral dose 24 hours before intranasal infection
Protocol: The therapeutic efficacy, expressed as the 50% protective dose (PD50), of the compounds of formula (I) was evaluated in the experimental pulmonary infection induced in mice by Streptococcus pyogenes C203.
Charles River albino mice (strain CD1) weighing 23-25 g were used, kept in groups of 6 to a cage and fed normally with a standard diet and water ad libitum.
A suspension of Streptococcus pyogenes C203 (equal to about 10^8 CFU) in tryptone broth (0.05 ml) was administered intranasally to each mouse, anaesthetized with a mixture of ethyl ether and chloroform.
The compounds of formula I and the clarithromycin reference compounds were administered orally in a single dose, as a 0.5% suspension Methocel® 1 hour after the infection and 24 hours before the infection.
Observation of the death of the mice was continued for 7 days after the infection.
The PD50, expressed as μmol/kg, was calculated by means of probit analysis.

Row | Molecule | MIC ([1]; Staphylococcus aureus, 77) [µg/mL] | MIC ([2]; Staphylococcus aureus, 929) [µg/mL] | MIC ([3]; Staphylococcus) [µg/mL] | MIC ([4]; Staphylococcus, 60) [µg/mL] | MIC ([5]; Staphylococcus, 916) [µg/mL] | MIC ([6]; Staphylococcus haemolyticus, 161) [µg/mL] | MIC ([7]; Streptococcus pneumoniae, 1035) [µg/mL] | MIC ([8]; Streptococcus pneumoniae, 1047) [µg/mL] | MIC ([9]; Streptococcus pneumoniae, 1051) [µg/mL] | PD50 1 hour after infection [10] [µmol/kg] | PD50 24 hours before infection [10] [µmol/kg] | MIC S. aureus 77 [1] [µg/mL] | MIC S. aureus 929 [2] [µg/mL] | MIC S. coag. Neg. 845 [3] [µg/mL] | MIC S. epidermis 60* [4] [µg/mL] | MIC S. specie 916* [5] [µg/mL] | MIC S. haemolyticus 161 [6] [µg/mL] | MIC S. pneumoniae 1035 [7] [µg/mL] | MIC S. pneumoniae 1047 [8] [µg/mL] | MIC S. pneumoniae 1051 [9] [µg/mL]
1 | CC[C@H]1OC(=O)[C@H](C)[C@@H](O[C@H]2C[C@@](C)(OC)[C@@H](O)[C@H](C)O2)[C@H](C)[C@@H](O[C@@H]2O[C@H](C)C[C@H](N(C)C)[C@H]2O)[C@](C)(O)C[C@@H](C)CN(C)[C@H](C)[C@@H](O)[C@]1(C)O [Azithromycin, reference compound] | > 64 | > 64 | > 64 | > 64 | > 64 | > 64 | 4 (≈ 5.34 µM) | 2 (≈ 2.67 µM) | 16 (≈ 21.4 µM) | – | – | – | – | – | – | – | – | – | – | –
2 | CC[C@H]1OC(=O)[C@H](C)[C@@H](O[C@H]2C[C@@](C)(OC)[C@@H](O)[C@H](C)O2)[C@H](C)[C@@H](O[C@@H]2O[C@H](C)C[C@H](N(C)C)[C@H]2O)[C@](C)(OC)C[C@@H](C)C(=O)[C@H](C)[C@@H](O)[C@]1(C)O [Clarithromycin, reference compound] | – | – | – | – | – | – | – | – | – | 7.38 | >85.6 | – | – | – | – | – | – | – | – | –
3 | CC[C@H]1OC(=O)[C@H](C)[C@@H](O[C@H]2C[C@@](C)(OC)[C@@H](O)[C@H](C)O2)[C@H](C)[C@@H](O[C@@H]2O[C@H](C)C[C@H](N(C)C)[C@H]2O)[C@](C)(O)C[C@@H](C)/C(=N\OCCNCCCCCCNCc2nc(-c3nccs3)cs2)[C@H](C)[C@@H](O)[C@]1(C)O [Compound 1, erythromycin A (E)-9-[O-[2-[6-[([2,4′]bithiazole-2′-ylmethyl)amino]hexylamino]ethyl]oxime]] | – | – | – | – | – | – | – | – | – | 22.9 | 15.5 | >64 | >64 | >64 | 2 (≈ 1.87 µM) | 2 (≈ 1.87 µM) | >64 | – | – | –
4 | CC[C@H]1OC(=O)[C@H](C)[C@@H](O[C@H]2C[C@@](C)(OC)[C@@H](O)[C@H](C)O2)[C@H](C)[C@@H](O[C@@H]2O[C@H](C)C[C@H](N(C)C)[C@H]2O)[C@](C)(O)C[C@@H](C)/C(=N\OCCN(C)CCCCCCNCc2nc(-c3nccs3)cs2)[C@H](C)[C@@H](O)[C@]1(C)O [Compound 2] | – | – | – | – | – | – | – | – | – | – | – | >64 | >64 | >64 | 2 (≈ 1.84 µM) | 4 (≈ 3.68 µM) | >64 | – | – | –
5 | CC[C@H]1OC(=O)[C@H](C)[C@@H](O[C@H]2C[C@@](C)(OC)[C@@H](O)[C@H](C)O2)[C@H](C)[C@@H](O[C@@H]2O[C@H](C)C[C@H](N(C)C)[C@H]2O)[C@](C)(O)C[C@@H](C)/C(=N\OCCNCCCCCCNCc2csc(-c3cccs3)n2)[C@H](C)[C@@H](O)[C@]1(C)O [Compound 4, Erythromycin A (E)-9-[O-[2-[6-[(2-thiophen-2-ylthiazol-4-ylmethyl)amino]hexylamino]ethyl]oxime]] | – | – | – | – | – | – | – | – | – | 11.4 | 14.3 | 64 (≈ 59.8 µM) | 16 (≈ 14.9 µM) | 16 (≈ 14.9 µM) | 0.5 (≈ 0.467 µM) | 8 (≈ 7.47 µM) | 16 (≈ 14.9 µM) | – | – | –
6 | CC[C@H]1OC(=O)[C@H](C)[C@@H](O[C@H]2C[C@@](C)(OC)[C@@H](O)[C@H](C)O2)[C@H](C)[C@@H](O[C@@H]2O[C@H](C)C[C@H](N(C)C)[C@H]2O)[C@](C)(O)C[C@@H](C)/C(=N\OCCNCCCCCCNCc2csc(-n3ccnc3)n2)[C@H](C)[C@@H](O)[C@]1(C)O [Compound 5, Erythromycin A (E)-9-[O-[2-[6-[(2-imidazol-1-ylthiazol-4-ylmethyl)amino]hexylamino]ethyl]oxime]] | – | – | – | – | – | – | – | – | – | – | – | >64 | >64 | >64 | 1 (≈ 0.948 µM) | 4 (≈ 3.79 µM) | >64 | 4 (≈ 3.79 µM) | 4 (≈ 3.79 µM) | 2 (≈ 1.9 µM)
7 | CC[C@H]1OC(=O)[C@H](C)[C@@H](O[C@H]2C[C@@](C)(OC)[C@@H](O)[C@H](C)O2)[C@H](C)[C@@H](O[C@@H]2O[C@H](C)C[C@H](N(C)C)[C@H]2O)[C@](C)(O)C[C@@H](C)/C(=N\OCCN(C)CCCCCCNCc2csc(-n3ccnc3)n2)[C@H](C)[C@@H](O)[C@]1(C)O [Compound 6] | – | – | – | – | – | – | – | – | – | 10.1 | 16.0 | >64 | >64 | >64 | 2 (≈ 1.87 µM) | 4 (≈ 3.74 µM) | >64 | 0.5 (≈ 0.468 µM) | 1 (≈ 0.936 µM) | 0.25 (≈ 0.234 µM)
8 | CC[C@H]1OC(=O)[C@H](C)[C@@H](O[C@H]2C[C@@](C)(OC)[C@@H](O)[C@H](C)O2)[C@H](C)[C@@H](O[C@@H]2O[C@H](C)C[C@H](N(C)C)[C@H]2O)[C@](C)(O)C[C@@H](C)/C(=N\OCCNCCCCCCNCc2csc(-n3cncn3)n2)[C@H](C)[C@@H](O)[C@]1(C)O [Compound 8, Erythromycin A (E)-9-[O-[2-[6-[(2-[1,2,4]triazol-1-ylthiazol-4-ylmethyl)amino]hexylamino]ethyl]oxime]] | – | – | – | – | – | – | – | – | – | – | – | >64 | >64 | >64 | 2 (≈ 1.9 µM) | 8 (≈ 7.58 µM) | >64 | 4 (≈ 3.79 µM) | 2 (≈ 1.9 µM) | 1 (≈ 0.948 µM)
9 | CC[C@H]1OC(=O)[C@H](C)[C@@H](O[C@H]2C[C@@](C)(OC)[C@@H](O)[C@H](C)O2)[C@H](C)[C@@H](O[C@@H]2O[C@H](C)C[C@H](N(C)C)[C@H]2O)[C@](C)(O)C[C@@H](C)/C(=N\OCCNCCCCCCNCc2csc(-n3cccn3)n2)[C@H](C)[C@@H](O)[C@]1(C)O [Compound 10, Erythromycin A (E)-9-[O-[2-[6-[(2-pyrazol-1-ylthiazol-4-ylmethyl)amino]hexylamino]ethyl]oxime]] | – | – | – | – | – | – | – | – | – | – | – | >64 | 32 (≈ 30.3 µM) | 32 (≈ 30.3 µM) | 1 (≈ 0.948 µM) | 4 (≈ 3.79 µM) | 64 (≈ 60.7 µM) | 1 (≈ 0.948 µM) | 0.5 (≈ 0.474 µM) | 0.25 (≈ 0.237 µM)
10 | CC[C@H]1OC(=O)[C@H](C)[C@@H](O[C@H]2C[C@@](C)(OC)[C@@H](O)[C@H](C)O2)[C@H](C)[C@@H](O[C@@H]2O[C@H](C)C[C@H](N(C)C)[C@H]2O)[C@](C)(O)C[C@@H](C)/C(=N\OCCN(C)CCCCCCNCc2csc(-n3cccn3)n2)[C@H](C)[C@@H](O)[C@]1(C)O [Compound 11, Erythromycin A (E)-9-[O-[2-[methyl[6-[(2-pyrazol-1-ylthiazol-4-ylmethyl]amino]hexyl]amino]ethyl]oxime]] | – | – | – | – | – | – | – | – | – | 11.2 | 25.4 | >64 | >64 | >64 | 2 (≈ 1.87 µM) | 8 (≈ 7.49 µM) | >64 | 0.0625 (≈ 0.0585 µM) | 0.5 (≈ 0.468 µM) | 0.125 (≈ 0.117 µM)
11 | Erythromycin A (E)-9-[O-[2-[6-[(2-[1,2,3]thiadiazol-5-ylthiazol-4-ylmethyl]amino]hexylamino]ethyl]oxime] [Compound 3] | – | – | – | – | – | – | – | – | – | 4.5 | 25.4 | >64 | 64 | 64 | 1 | 0.5 | 64 | – | – | –
